The text below walks through data of patent US20170273921A1, “3,5,N-TRIHYDROXY-ALKANAMIDE OR 3,5,N-TRIHYDROXY-6-ALKENAMIDE DERIVATIVE ALONE OR IN COMBINATION WITH CHEMOTHERAPEUTIC AGENT FOR TREATING CANCER” (National Taiwan University, priority 2014, published 2017).

The test system of data set [1] is AOM/DSS-induced CRC. Briefly: Animal model of AOM/DSS-induced CRC. In kind it is in vivo, male C57BL/6 mice. The conditions noted are these: single agent; JMF3086 25 mg/kg oral 5 days/week or oxaliplatin 5 mg/kg i.p. once a week, two weeks; FIG. 1B. Here is the method:
FIGS. 1A and 1B show the effect of a 3,5,N-trihydroxy-alkanamide derivative, JMF3086, combined with oxaliplatin on colitis-induced colorectal cancer in vivo. Mice were intraperitoneally injected with AOM (12.5 mg/kg) and maintained for 7 days, then subjected to 3 cycles of DSS treatment (1 cycle representing 5 days of 3.5% DSS followed by 14 days of H2O). […] Scale bars: 1 mm **P<0.01 versus vehicle.
AOM in conjunction with the additional DSS inflammatory stimulus results in tumor development that is restricted to the colon in mice (11, 12). This model is widely utilized to recapitulate human colorectal cancer because it results in inflammation and ulceration of the entire colon, similar to what is observed in patients (12). CRC was induced in male C57BL/6 mice via the intraperitoneal injection of AOM (12.5 mg/kg) while the mice were maintained with a regular diet and drinking water for 7 days and then subjecting to 3 cycles of DSS treatment, with each cycle consisting of the administration of 3.5% DSS for 5 days followed by a 14-day recovery period with regular water (FIG. 1A). […]

Data set [2] relates to HT29-Luciferase expressing cells. The data set is described as follows: Experimental colorectal cancer metastasis to the liver (HT29-Luciferase cells injected into spleen, IVIS imaging). In kind it is in vivo, NOD/SCID mice. The conditions noted are these: single agent; JMF3086 oral 5 days/week, oxaliplatin or irinotecan i.p. once a week, two weeks; FIGS. 2B and 2C.
Description: Seven-week-old female NOD/SCID mice were obtained from the National Laboratory Animal Center. The mice were anesthetized by continuous flow of 2-3% isoflurane. To generate liver metastases derived from human colorectal cancer cells in mouse models, HT29-Luciferase expressing cells (1×10^6) were suspended in 100 μl PBS and injected into the spleen of mice. After one-week recovery, the mice were randomized into vehicle and treatment group. […] Mice were then given endotoxon-free luciferse substrate and photographed by IVIS imaging system (Xenogen) once a week. Tumors in spleen and liver were collected and weighed after sacrificed.
The subject of data set [3] is colorectal cancer cells (HCT116). Briefly: Experimental colorectal cancer metastasis to the lung (HCT116 injected via tail vein). It is filed as in vivo, nude mice. The conditions noted are these: JMF3086 100 mg/kg; FIG. 2E. As to the method:
Besides, to examine the anti-metastatic activity of JMF3086, colorectal cancer cells (HCT116) were intravenously injected into nude mice via the tail vein (FIG. 2D). JMF3086 (100 mg/kg) reduced lung tumor nodules by macroscopic observation (FIG. 2E), indicating its inhibition on lung metastasis.

Data set [4] relates to angiogenesis (neovessel formation in matrigel plugs). Briefly: Subcutaneous matrigel plug angiogenesis assay with conditioned medium of hypoxic HCT116 cells. The conditions noted are these: HCT116 treated with 30 μM JMF3086 for 20 hours, hypoxia 4 hours; plugs after 14 days; FIG. 2F. It is filed as in vivo, nude mice. Here is the method:
Angiogenesis is an essential step of tumor growth and metastasis (13). To determining the effect of JMF3086 on angiogenesis, HCT116 cells treated with 30 μM JMF3086 for 20 hours were exposed to hypoxia for 4 hours, then conditional medium was collected and subcutaneous matrigel plug assay was conducted by injecting of 75 μl conditional medium mixed with 425 μl matrigel and 50 U heparin/ml into nude mice (5 mice/group). Mice were sacrificed and dissected after 14 days. Matrigel plug retrieved from mice were photographed. Quantification of neovessel formation in matrigel plugs were estimated using Drabkin reagent kit 525.

Data set [5] has as its system A549-Luc cells. Briefly: Orthotopic lung cancer model (A549-Luc, IVIS imaging). It is filed as in vivo, NOD/SCID mice. The conditions noted are these: single agent; JMF3086 oral 5 days/week or cisplatin i.p. once a week, two weeks; FIG. 3B. Here is the method:
In this Example, we use A549 cells [non-small cell lung cancer cell line with KRAS mutations (EGFR wild-type)] to establish the orthotopic lung cancer models. Seven-week-old male NOD/SCID mice were anesthetized by continuous flow of 2-3% isoflurane. A549-Luc cells (2×10^6) suspended in 40 μl of PBS were injected percutaneously into the right lung of the mice using 500 μl Gas-Tight syringes with 27G top winged infusion set. These mice were then given endotoxon-free luciferse substrate and photographed using IVIS-200 imaging system once a week. When lung tumor nodules were detected, the mice were oral administration of JMF3086 (5 days/week), intraperitoneally administered cisplatin (once a week) or a combination of JM3086 and cisplatin for additional two weeks (FIG. 3A).

The subject of data set [6] is various human cancer cell lines. The data set is described as follows: Cell viability by MTT cell proliferation assay. It is filed as cell-based. As to the method: Human […] cancer cells (Hela) and breast cancer cells (MD-MBA-231, MCF7) were seeded at 3000 cells/well in 96-well plates and maintained for 14-16 hours, then treated with JMF3086 or gemcitabine or both. After 72 hours, cells were washed with PBS then added medium containing MTT reagent (Sigma) at a final concentration of 0.5 mg/ml for 4 hours. Then, the medium was replaced with 200 μl of DMSO for 30 minutes, and using an ELISA reader (570 nm) to get the absorbance density values. The 50% of inhibition concentration (IC50) of death cells was calculated.
Effect of three 3,5,N-trihydroxy-alkanamide derivatives, JMF3086, (3R,5R)-7-{(1S,2S,6R,8S,8aR)-hexahydro-2,6-dimethyl-8-[2-dimethylbutyryloxy]naphthalenyl}-3,5-dihydroxy-N-hydroxyheptanamide (also referred to as JMF3171), and (3R,5R)-7-{[2-(4-fluoro-phenyl)-5isopropyl-3-phenyl-4-phenylcarbamoylpyrrol-1-yl]-3,5-dihydroxy-N-hydroxyheptanamide (also referred to as JMF3173) and the corresponding statins on the cell viability of various human cancer cell lines was determined by cell proliferation assay as described in Example 4. Specifically, cancer cells were treated with various concentrations of test compounds for 72 hours, and cell viability was measured by MTT assay. The half maximal inhibitory concentration (IC50) values for individual cell line were calculated.
On the technique in general: Formazan colour is commonly taken as a measure of viable cells.

Data set [7] concerns H3K27-Ac binding to gene promoters in HCT116. The data set is described as follows: ChIP-on-chip assay of H3K27-Ac in HCT116 cells. In kind it is cell-based, human. As to the method:
(§1) Colorectal cancer cells (HCT116) were treated with 30 μM JMF3086 for 24 hours, ChIP assays using control Rabbit IgG (sc-2027; Santa Cruz) or anti-H3K27-ac antibody (#4353; Cell Signaling) were performed as previously described (14).
ChIP-on-chip assays were performed in the Microarray and Gene Expression Analysis Core Facility of the National Yang-Ming University VGH Genome Research Center in Taiwan using the SurePrint G3 Human Promoter 1×1M Kit (Agilent Technologies) after DNA was further purified through phenol/chloroform/isoamyl alcohol extraction and ethanol precipitation. Genes with two-fold down-regulation or up-regulation of H3K27-Ac in log-ratio after JMF 3086 treatment were regarded as significance.

In data set [8] the test system is bindings of acetyl-H3K27, CBP, HDAC1 and HDAC3 to promoter. Briefly: Quantitative ChIP (qChIP) assay of promoter binding in HCT116 cells. In kind it is cell-based, human. The conditions noted are these: FIG. 5D. As to the method:
FIGS. 5A to 5D show genome-wide analysis of target genes in 3,5,N-trihydroxy-alkanamide derivative-treated colorectal cancer cells. […] Ingenuity Pathways Analysis (IPA) analysis predicted that the genes associated with apoptosis were regulated by NR3C1. P=4.30E-37. […] The molecular network has a P-score (−log10 (p-value)) of 48. […] Data were analyzed by the Q-PCR and plotted as percent (%) of input DNA. *P<0.05, **P<0.01 versus basal, two-sided Student t test.
as §1
To further investigate these differential effects of JMF3086, the bindings of acetyl-H3K27, CBP, HDAC1 and HDAC3 to promoter were examined by quantitative ChIP (qChIP) assays. JMF3086 reduced the bindings of acetyl-H3K27 and CBP to the promoters of TNF-α, CD166, COX-2, BCL2, CXCL1, CXCL2, EpCAM, CD44, Cyclin D1 and MCL1, but increased those of HDAC1 and HDAC3 to the promoters (FIG. 5D). In contrast, JMF3086 increased the bindings of acetyl-H3K27 and CBP to the promoters of TIMP3, BMP2 and p53 but decreased those of HDAC1 and HDAC3 to their promoters (FIG. 5D).

Where [9] appears, read: HCT116, 30 μM, 24 hours, FIG. 5C.

Read-outs that look alike come from different tables or passages of the source.

As to `CCC(C)C(=O)O[C@H]1C[C@@H](C)C=C2C=C[C@H](C)[C@H](CC[C@@H](O)C[C@@H](O)CC(=O)NO)[C@H]21` (stereo partly drawn) [JMF3086, (3R,5R)-7-{(1S,2S,6R,8S,8aR)-hexahydro-2,6-dimethyl-8-[2-methylbutyryloxy]naphthalenyl}-3,5-dihydroxy-N-hydroxyheptanamide], the “number of tumors and sizes” value in data set [1] is “modestly reduced”. In addition, in data set [2], the “liver metastasis (luciferase activity, IVIS)” value (from here on “liver metastasis”) is listed as “modestly inhibited”. Further, the “lung tumor nodules by macroscopic observation” value in data set [3] was “reduced”. Moreover, the “angiogenesis induced by conditioned medium from HCT116 cells under hypoxia (matrigel plug)” value in data set [4] was “inhibited”. For the same compound, the “lung cancer development (luciferase activity, IVIS)” value in data set [5] is recorded as “ineffectively inhibited”. Moreover, in data set [6], the “cytotoxicity / cell viability” value is “cytotoxic”. Also, in data set [7] (HCT116, 30 μM JMF3086, 24 hours), the “number of genes with altered binding of H3K27-acetylation” value is reported as “more than 10,000 genes”. Moreover, in data set [7] (HCT116, 30 μM, 24 hours), the “mRNA expression of genes of inflammation and proliferation, stemness of cancer, and anti-apoptosis” value is given as “reduced”; the “mRNA expression of tumor suppressors” value is given as “increased”. Further, in data set [7] (setting [9]), the “binding of H3K27-Ac to the gene promoters of inflammation and proliferation, stemness of cancer, and anti-apoptosis” value is “inhibited”; the “binding of H3K27-Ac to the gene promoters of tumor suppressors” value is on record as “increased”. Moreover, in data set [8], the “bindings of HDAC1 and HDAC3 to the promoters of TIMP3, BMP2 and p53” value is “decreased”; the “bindings of HDAC1 and HDAC3 to the promoters of TNF-α, CD166, COX-2, BCL2, CXCL1, CXCL2, EpCAM, CD44, Cyclin D1 and MCL1” value is “increased”; the “bindings of acetyl-H3K27 and CBP to the promoters of TIMP3, BMP2 and p53” value is “increased”; the “bindings of acetyl-H3K27 and CBP to the promoters of TNF-α, CD166, COX-2, BCL2, CXCL1, CXCL2, EpCAM, CD44, Cyclin D1 and MCL1” value is “reduced”.

`CCC(C)(C)C(=O)O[C@H]1C[C@@H](C)C=C2C=C[C@H](C)[C@H](CC[C@@H](O)C[C@@H](O)CC(=O)NO)[C@H]21` [JMF3171, (3R,5R)-7-{(1S,2S,6R,8S,8aR)-hexahydro-2,6-dimethyl-8-[2-dimethylbutyryloxy]naphthalenyl}-3,5-dihydroxy-N-hydroxyheptanamide]: the “cytotoxicity / cell viability” value in data set [6] is “cytotoxic”.

Regarding `CC(C)c1c(C(=O)Nc2ccccc2)c(-c2ccccc2)c(-c2ccc(F)cc2)n1CC[C@@H](O)C[C@@H](O)CC(=O)NO` [JMF3173], the “cytotoxicity / cell viability” value in data set [6] (CRC and various cancer cell lines, 72 hours, MTT, FIG. 4) is “cytotoxic”.

For `N.N.[Cl][Pt][Cl]` [cisplatin, reference compound], the “lung cancer development (luciferase activity, IVIS)” value in data set [5] is listed as “ineffectively inhibited”.

Consider `CCc1c2c(nc3ccc(OC(=O)N4CCC(N5CCCCC5)CC4)cc13)-c1cc3c(c(=O)n1C2)COC(=O)[C@]3(O)CC` [irinotecan], for which, in data set [2], the “liver metastasis” value is “modestly inhibited”.

For the compound `O=C1[O][Pt]2([NH][C@@H]3CCCC[C@H]3[NH]2)[O]C1=O` [oxaliplatin, reference compound], the “number of tumors and sizes” value in data set [1] is on record as “modestly reduced”. The “liver metastasis” value in data set [2] is given as “modestly inhibited”.
